This passage reports half-life, Activity and Drug metabolism results from ChEMBL document CHEMBL5365476, “VHL-Modified PROteolysis TArgeting Chimeras (PROTACs) as a Strategy to Evade Metabolic Degradation in In Vitro Applications” (J Med Chem, 2023).

Each structure is given as a SMILES string.

Series [1] can be described thus: Metabolic stability in human hepatocytes assessed as half life. The series is classed as ADME, cell-based, Hepatocyte.
The target in series [2] is von Hippel-Lindau disease tumor suppressor (Homo sapiens) (UniProt P40337). In words: Binding affinity to 6-His tagged human VHL at 50 uM incubated for 1 hr by HTRF based assay relative to control. For orientation: TR-FRET usually uses a lanthanide donor and a delayed reading to cut background.
Sequence of von Hippel-Lindau disease tumor suppressor (Homo sapiens) (P40337 whole entry, looked up): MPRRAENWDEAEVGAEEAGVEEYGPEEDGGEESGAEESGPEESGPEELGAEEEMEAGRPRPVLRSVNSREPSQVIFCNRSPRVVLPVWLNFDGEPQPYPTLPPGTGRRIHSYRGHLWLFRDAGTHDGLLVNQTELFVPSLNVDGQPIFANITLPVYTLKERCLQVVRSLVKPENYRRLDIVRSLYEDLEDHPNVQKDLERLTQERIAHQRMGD
Series [3] is described as follows: Drug metabolism in human hepatocytes assessed as M-200 metabolite formation incubated for 240 mins in presence of ZPP by LC-MS/MS analysis. Type of series: ADME, cell-based, Hepatocyte. The settings on record: 4 h.
Series [4] is described as follows: Drug metabolism in human hepatocytes assessed as M + 16 metabolite formation incubated for 240 mins by LC-MS/MS analysis. The series is classed as ADME, cell-based, Hepatocyte. The settings on record: 4 h.
The nature of series [5]: Drug metabolism in human hepatocytes assessed as M + 16 metabolite formation incubated for 240 mins in presence of ZPP by LC-MS/MS analysis. Type of series: ADME, cell-based, Hepatocyte. Particulars: 4 h.
A short description of series [6]: Drug metabolism in human liver microsomes assessed as M-200 metabolite formation incubated for 60 mins. Type of series: ADME, Microsome. Particulars: 1 h. On the technique in general: Microsomes from liver hold many membrane-bound enzymes, among them those of drug oxidation.
Series [7] can be described thus: Drug metabolism in human liver microsomes assessed as M-200 metabolite formation incubated for 60 mins in presence of 1 nM ZPP. The series is classed as ADME, Microsome. The settings on record: 1 h.
Series [8] is described as follows: Drug metabolism in human liver microsomes assessed as M-200 metabolite formation incubated for 60 mins in presence of 30 nM ZPP. The series is classed as ADME, Microsome. Particulars: 1 h.
The nature of series [9]: Drug metabolism in human liver cytosol assessed as M-200 metabolite formation incubated for 60 mins in presence of 30 nM ZPP. Type of series: ADME, subcellular. Particulars: 1 h.
Series [10] in a line: Drug metabolism in human hepatocytes assessed as M-200 metabolite formation incubated for 240 mins in presence of 3 uM ZPP by LC-MS/MS analysis. The settings on record: 4 h. Type of series: ADME, cell-based, Hepatocyte.
A short description of series [11]: Drug metabolism in HEK293 cells cytosol assessed as M-200 metabolite formation incubated for 60 mins in presence of 30 nM ZPP. The settings on record: human, 1 h. Type of series: ADME, subcellular.
Series [12] can be described thus: Drug metabolism in HEK293 cells cytosol assessed as M-525 metabolite formation. The series is classed as ADME, subcellular. The settings on record: human.
A short description of series [13]: Metabolic stability in HEK293 cells cytosol assessed as half life. Type of series: ADME, subcellular. Particulars: human, HEK293 cell cytosol.
Series [14] is described as follows: Drug metabolism in HEK293 cells cytosol assessed as M-200 metabolite formation incubated for 60 mins. The settings on record: human, 1 h. Type of series: ADME, subcellular.
The nature of series [15]: Drug metabolism in HEK293 cells cytosol assessed as M+16 metabolite formation incubated for 60 mins. The settings on record: human, 1 h. The series is classed as ADME, subcellular.
Series [16] can be described thus: Drug metabolism in human liver cytosol assessed as M-200 metabolite formation incubated for 60 mins in presence of 100 uM ZPP. The settings on record: 1 h. The series is classed as ADME, subcellular.
Series [17] in a line: Drug metabolism in HEK293 cells cytosol assessed as M+16 metabolite formation incubated for 60 mins in presence of 1 to 30 nM ZPP. The settings on record: human, 1 h. Type of series: ADME, subcellular.

One may read the half-life as the time in which the quantity being followed falls by half. For the molecule `Cc1nc(C)c(-c2ccc(-c3c[nH]c([C@@H]4C[C@@H](O)CN4C(=O)[C@@H](N)C(C)(C)C)n3)cc2)s1`, the half-life in [1] stood at 5.58 h. In addition, in series [2], the Activity is 35%.
As for `Cc1ncsc1-c1ccc([C@H](C)NC(=O)[C@@H]2C[C@@H](O)CN2C(=O)[C@@H](NC(=O)CCCCNC(=O)COc2c(-c3csc(N4CCOCC4)n3)ccc(F)c2F)C(C)(C)C)cc1`, the Drug metabolism entry in series [3] is on record as “Metabolite_Detected”; in series [4] it was “Metabolite_Detected”; in series [5], “Metabolite_Detected”; in [6] it was “Metabolite_Notdetected”; in series [7], “Metabolite_Notdetected”; in series [8] it was “Metabolite_Notdetected”. Moreover, the Drug metabolism result in [9] is “Metabolite_Notdetected”; in [10], “Metabolite_Notdetected”; in series [11], “Metabolite_Notdetected”; in series [12] it was “Metabolite_Detected”. Further, in series [13], the half-life amounted to 2.85 h.
On to `Cc1ncsc1-c1ccc(-c2c[nH]c([C@@H]3C[C@@H](O)CN3C(=O)[C@@H](N)C(C)(C)C)n2)cc1`, for which, in series [1], the half-life stood at 5.76 h. This molecule registered an Activity in series [2] of 21%.
Turning to `Cc1ncsc1-c1ccc(-c2cnc([C@@H]3C[C@@H](O)CN3C(=O)[C@@H](NC(=O)CCCCNC(=O)COc3c(-c4csc(N5CCOCC5)n4)ccc(F)c3F)C(C)(C)C)[nH]2)cc1`, the Drug metabolism result in series [14] is “Metabolite_Notdetected”; in [15], “Metabolite_Detected”.
Regarding `Cc1nc(C)c(-c2ccc(-c3cnc([C@@H]4C[C@@H](O)CN4C(=O)[C@@H](NC(=O)CCCCNC(=O)COc4c(-c5csc(N6CCOCC6)n5)ccc(F)c4F)C(C)(C)C)[nH]3)cc2)s1`, the half-life in [13] worked out at 17.1 h.
Regarding `Cc1nc(C)c(-c2ccc([C@H](C)NC(=O)[C@@H]3C[C@@H](O)CN3C(=O)[C@@H](N)C(C)(C)C)cc2)s1.Cl`, in series [1], the half-life was determined as 2.74 h. Also, the Activity in series [2] is 65%.
As for `Cc1ncsc1-c1ccc([C@H](C)NC(=O)[C@@H]2C[C@@H](O)CN2C(=O)[C@@H](N)C(C)(C)C)cc1`, the Drug metabolism result in series [4], in [5], in series [16], in series [15] and in [17] was “Metabolite_Detected” throughout. Besides, in series [1], the half-life was found to be 2.01 h. The molecule also registered an Activity in [2] of 73%.
